According to ChEMBL document CHEMBL3232987, “Investigation of Ugi-4CC derived 1H-tetrazol-5-yl-(aryl) methyl piperazinyl-6-fluoro-4-oxo-1,4-dihydroquinoline-3-carboxylic acid: synthesis, biology and 3D-QSAR analysis” (Eur J Med Chem, 2014):
≈ marks a conversion by molar mass, not a printed value.

Legend:
[1] = system: Staphylococcus aureus; assay: Antibacterial activity against Staphylococcus aureus ATCC 25923 by NCCLS two-fold dilution method; type: functional; conditions: for MIC: Staphylococcus aureus, ATCC 25923
[2] = system: Staphylococcus aureus; assay: Antibacterial activity against methicillin-resistant Staphylococcus aureus ATCC 700699 by NCCLS two-fold dilution method; type: functional
[3] = system: Staphylococcus aureus; assay: Antibacterial activity against Staphylococcus aureus ATCC 29213 by NCCLS two-fold dilution method; type: functional
[4] = system: Staphylococcus aureus; assay: Antibacterial activity against gentamicin-resistant Staphylococcus aureus ATCC 33592 by NCCLS two-fold dilution method; type: functional
[5] = system: Staphylococcus aureus; assay: Antibacterial activity against Staphylococcus aureus ATCC 25923 after 24 hrs by spectrophotometric analysis; type: functional, organism-based; conditions: Staphylococcus aureus, ATCC 25923, 24 h; for IC50: read-out: IC50
[6] = system: Staphylococcus aureus; assay: Antibacterial activity against methicillin-resistant Staphylococcus aureus ATCC 700699 after 24 hrs by spectrophotometric analysis; type: functional, organism-based; conditions: Staphylococcus aureus, ATCC 700699, 24 h; for IC50: read-out: IC50
[7] = system: Staphylococcus aureus; assay: Antibacterial activity against Staphylococcus aureus ATCC 29213 after 24 hrs by spectrophotometric analysis; type: functional, organism-based; conditions: Staphylococcus aureus, ATCC 29213, 24 h; for IC50: read-out: IC50
[8] = system: Staphylococcus aureus; assay: Antibacterial activity against gentamicin-resistant Staphylococcus aureus ATCC 33592 after 24 hrs by spectrophotometric analysis; type: functional, organism-based; conditions: Staphylococcus aureus, ATCC 33592, 24 h; for IC50: read-out: IC50

SMILES | -logMIC [1] | MIC [1] [µg/mL] | MIC [2] [µg/mL] | MIC [3] [µg/mL] | MIC [4] [µg/mL] | MIC [5] [µg/mL] | IC50 [5] [µg/mL] | MIC [6] [µg/mL] | IC50 [6] [µg/mL] | MIC [7] [µg/mL] | IC50 [7] [µg/mL] | MIC [8] [µg/mL] | IC50 [8] [µg/mL]
COc1ccc(C(c2nnnn2C2CCCCC2)N2CCN(c3cc4c(cc3F)c(=O)c(C(=O)O)cn4Cc3ccc(C(F)(F)F)cc3)CC2)c2ccccc12 (centres undefined) | 4.187 | 50 (≈ 65 µM) | > 50 | > 50 | > 50 | > 50 | 50 (≈ 65 µM) | > 50 | > 50 | > 50 | > 50 | > 50 | > 50
CC(C)(C)n1nnnc1C(c1ccccc1)N1CCN(c2cc3c(cc2F)c(=O)c(C(=O)O)cn3Cc2ccc(C(F)(F)F)cc2)CC1 (centres undefined) | 4.122 | 50 (≈ 75.3 µM) | 25 (≈ 37.7 µM) | 25 (≈ 37.7 µM) | 12.5 (≈ 18.8 µM) | 50 (≈ 75.3 µM) | 50 (≈ 75.3 µM) | 50 (≈ 75.3 µM) | 50 (≈ 75.3 µM) | 50 (≈ 75.3 µM) | 50 (≈ 75.3 µM) | 50 (≈ 75.3 µM) | 50 (≈ 75.3 µM)
CC(C)(C)n1nnnc1C(c1ccncc1)N1CCN(c2cc3c(cc2F)c(=O)c(C(=O)O)cn3Cc2ccc(C(F)(F)F)cc2)CC1 (centres undefined) | 4.123 | 50 (≈ 75.2 µM) | 50 (≈ 75.2 µM) | 50 (≈ 75.2 µM) | 50 (≈ 75.2 µM) | 50 (≈ 75.2 µM) | 50 (≈ 75.2 µM) | 50 (≈ 75.2 µM) | 50 (≈ 75.2 µM) | 50 (≈ 75.2 µM) | 50 (≈ 75.2 µM) | 50 (≈ 75.2 µM) | 50 (≈ 75.2 µM)
CC(C)(C)n1nnnc1C(c1cccc2ccccc12)N1CCN(c2cc3c(cc2F)c(=O)c(C(=O)O)cn3Cc2ccc(C(F)(F)F)cc2)CC1 (centres undefined) | 4.455 | 50 (≈ 70.1 µM) | 50 (≈ 70.1 µM) | 50 (≈ 70.1 µM) | 50 (≈ 70.1 µM) | 50 (≈ 70.1 µM) | 50 (≈ 70.1 µM) | 50 (≈ 70.1 µM) | 50 (≈ 70.1 µM) | 50 (≈ 70.1 µM) | > 50 | > 50 | > 50
O=C(O)c1cn(Cc2ccc(C(F)(F)F)cc2)c2cc(N3CCN(C(c4cccc5ccccc45)c4nnnn4C4CCCCC4)CC3)c(F)cc2c1=O (centres undefined) | 4.169 | 50 (≈ 67.6 µM) | > 50 | > 50 | > 50 | > 50 | 50 (≈ 67.6 µM) | > 50 | > 50 | > 50 | > 50 | > 50 | > 50
O=C(O)c1cn(Cc2ccc(C(F)(F)F)cc2)c2cc(N3CCN(C(c4ccccc4)c4nnnn4C4CCCCC4)CC3)c(F)cc2c1=O (centres undefined) | 4.741 | 12.5 (≈ 18.1 µM) | > 50 | 6.25 (≈ 9.06 µM) | 25 (≈ 36.2 µM) | 17.5 (≈ 25.4 µM) | 5.2 (≈ 7.54 µM) | > 50 | > 50 | 4.4 (≈ 6.38 µM) | 2.2 (≈ 3.19 µM) | 40.5 (≈ 58.7 µM) | 21 (≈ 30.4 µM)
CCn1cc(C(=O)O)c(=O)c2cc(F)c(N3CCN(C(c4ccc(OC)c5ccccc45)c4nnnn4C4CCCCC4)CC3)cc21 (centres undefined) | 5.01 | 6.25 (≈ 9.77 µM) | 25 (≈ 39.1 µM) | 12.5 (≈ 19.5 µM) | 6.25 (≈ 9.77 µM) | 4.4 (≈ 6.88 µM) | 1.7 (≈ 2.66 µM) | 9 (≈ 14.1 µM) | 4.06 (≈ 6.35 µM) | 6.9 (≈ 10.8 µM) | 3.6 (≈ 5.63 µM) | 4.7 (≈ 7.35 µM) | 3.6 (≈ 5.63 µM)
CCn1cc(C(=O)O)c(=O)c2cc(F)c(N3CCN(C(c4ccc(F)cc4)c4nnnn4C4CCCCC4)CC3)cc21 (centres undefined) | 5.568 | 1.56 (≈ 2.7 µM) | 50 (≈ 86.6 µM) | 50 (≈ 86.6 µM) | 50 (≈ 86.6 µM) | 2.1 (≈ 3.64 µM) | 0.5 (≈ 0.866 µM) | 50 (≈ 86.6 µM) | 50 (≈ 86.6 µM) | > 50 | 50 (≈ 86.6 µM) | 50 (≈ 86.6 µM) | 50 (≈ 86.6 µM)
COc1ccc(C(c2nnnn2C(C)(C)C)N2CCN(c3cc4c(cc3F)c(=O)c(C(=O)O)cn4Cc3ccc(C(F)(F)F)cc3)CC2)c(OC)c1OC (centres undefined) | 4.178 | 50 (≈ 66.3 µM) | 50 (≈ 66.3 µM) | 50 (≈ 66.3 µM) | 50 (≈ 66.3 µM) | 50 (≈ 66.3 µM) | 50 (≈ 66.3 µM) | 50 (≈ 66.3 µM) | 50 (≈ 66.3 µM) | 50 (≈ 66.3 µM) | 50 (≈ 66.3 µM) | 50 (≈ 66.3 µM) | 50 (≈ 66.3 µM)
CCn1cc(C(=O)O)c(=O)c2cc(F)c(N3CCN(C(c4cccc5ccccc45)c4nnnn4C4CCCCC4)CC3)cc21 (centres undefined) | 5.29 | 3.12 (≈ 5.12 µM) | 25 (≈ 41 µM) | 6.25 (≈ 10.3 µM) | 3.12 (≈ 5.12 µM) | 1.4 (≈ 2.3 µM) | 0.77 (≈ 1.26 µM) | 8.2 (≈ 13.4 µM) | 3.7 (≈ 6.07 µM) | 2.9 (≈ 4.76 µM) | 1.6 (≈ 2.62 µM) | 4.2 (≈ 6.89 µM) | 1.6 (≈ 2.62 µM)
CCn1cc(C(=O)O)c(=O)c2cc(F)c(N3CCN(C(c4ccc(OC)c5ccccc45)c4nnnn4C(C)(C)C)CC3)cc21 (centres undefined) | 4.69 | 12.5 (≈ 20.4 µM) | 12.5 (≈ 20.4 µM) | 25 (≈ 40.7 µM) | 12.5 (≈ 20.4 µM) | 18 (≈ 29.3 µM) | 7 (≈ 11.4 µM) | 6.9 (≈ 11.2 µM) | 7.5 (≈ 12.2 µM) | 50 (≈ 81.5 µM) | 50 (≈ 81.5 µM) | 50 (≈ 81.5 µM) | 50 (≈ 81.5 µM)
CC(C)(C)n1nnnc1C(c1ccco1)N1CCN(c2cc3c(cc2F)c(=O)c(C(=O)O)cn3Cc2ccc(C(F)(F)F)cc2)CC1 (centres undefined) | – | 50 (≈ 76.5 µM) | 50 (≈ 76.5 µM) | 25 (≈ 38.2 µM) | 12.5 (≈ 19.1 µM) | 50 (≈ 76.5 µM) | 50 (≈ 76.5 µM) | 50 (≈ 76.5 µM) | 50 (≈ 76.5 µM) | 50 (≈ 76.5 µM) | 50 (≈ 76.5 µM) | 50 (≈ 76.5 µM) | 50 (≈ 76.5 µM)
O=C(O)c1cn(Cc2ccc(C(F)(F)F)cc2)c2cc(N3CCN(C(c4ccc(F)cc4)c4nnnn4C4CCCCC4)CC3)c(F)cc2c1=O (centres undefined) | 4.752 | 12.5 (≈ 17.7 µM) | > 50 | > 50 | > 50 | 12.5 (≈ 17.7 µM) | 5.2 (≈ 7.35 µM) | > 50 | > 50 | > 50 | > 50 | > 50 | > 50
O=C(O)c1cn(Cc2ccc(C(F)(F)F)cc2)c2cc(N3CCN(C(c4ccncc4)c4nnnn4C4CCCCC4)CC3)c(F)cc2c1=O (centres undefined) | 4.14 | 50 (≈ 72.4 µM) | 50 (≈ 72.4 µM) | 50 (≈ 72.4 µM) | > 50 | 50 (≈ 72.4 µM) | > 50 | 50 (≈ 72.4 µM) | > 50 | 50 (≈ 72.4 µM) | > 50 | > 50 | 50 (≈ 72.4 µM)
CC(C)c1ccc(C(c2nnnn2C2CCCCC2)N2CCN(c3cc4c(cc3F)c(=O)c(C(=O)O)cn4Cc3ccc(C(F)(F)F)cc3)CC2)cc1 (centres undefined) | 4.165 | 50 (≈ 68.3 µM) | > 50 | > 50 | > 50 | 50 (≈ 68.3 µM) | > 50 | 50 (≈ 68.3 µM) | > 50 | > 50 | 50 (≈ 68.3 µM) | > 50 | 50 (≈ 68.3 µM)
